Measurements taken from the supplement of paper PMC8671470.

Legend:
Settings in all cases: 72 h
Mono-Mac-6 = tested on: Mono-Mac-6
Procedure, shortened: (§1)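 Seeded in RPMI 1640 at densities within the linear growth range, fifteen myeloid leukaemia cell lines were dispensed into 384-well plates with acoustically pre-printed compounds spanning five tenfold doses from 1 to 10,000 nM, in duplicate. The plates were kept for 72 h at 37 °C in 5% CO2 before luminescent ATP viability was measured and normalised to vehicle and to a positive control at 10 µM. Curves were fitted with a four-parameter log-logistic model. The IC50 was taken from those curves.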

KU-812 [1] = tested on: KU-812
Procedure, shortened: as §1

HEL [2] = tested on: HEL
Procedure, shortened: as §1

MOLM-13 [3] = tested on: MOLM-13
Procedure, shortened: as §1

K-562 [4] = tested on: K-562
Procedure, shortened: as §1

KG-1 [5] = tested on: KG-1
Procedure, shortened: as §1

THP-1 [6] = tested on: THP-1
Procedure, shortened: as §1

KCL-22 [7] = tested on: KCL-22
Procedure, shortened: as §1

SHI-1 [8] = tested on: SHI-1
Procedure, shortened: as §1

HL-60 [9] = tested on: HL-60
Procedure, shortened: as §1

LAMA-84 = tested on: LAMA-84
Procedure, shortened: as §1

MV4-11 [10] = tested on: MV4-11
Procedure, shortened: as §1

BV-173 = tested on: BV-173
Procedure, shortened: as §1

NOMO-1 [11] = tested on: NOMO-1
Procedure, shortened: as §1

ML-2 [12] = tested on: ML-2
Procedure, shortened: as §1

KU-812 [13] = assay: cell viability (% survival relative to DMSO control, bortezomib = 0%); higher = less cytotoxic
Procedure, shortened: (§2)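 Percent survival figures are means of duplicate wells. They were obtained by CellTiter-Glo luminescence after 10 AML and 5 CML cell lines spent 72 h at 37 °C with 5% CO2 in 384-well plates with compounds at 1, 10, 100, 1000 or 10000 nM. Vehicle was set to 100% and a 10 µM positive control to 0%.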

HEL [14] = assay: as above
Procedure, shortened: as §2

MOLM-13 [15] = assay: as above
Procedure, shortened: as §2

K-562 [16] = assay: as above
Procedure, shortened: as §2

KG-1 [17] = assay: as above
Procedure, shortened: as §2

THP-1 [18] = assay: as above
Procedure, shortened: as §2

KCL-22 [19] = assay: as above
Procedure, shortened: as §2

SHI-1 [20] = assay: as above
Procedure, shortened: as §2

HL-60 [21] = assay: as above
Procedure, shortened: as §2

MV4-11 [22] = assay: as above
Procedure, shortened: as §2

NOMO-1 [23] = assay: as above
Procedure, shortened: as §2

ML-2 [24] = assay: as above
Procedure, shortened: as §2

HL-60 [25] = assay: cell viability (% survival relative to DMSO control); higher = less cytotoxic
Procedure, shortened: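 In 384-well plates, the full library was rescreened in duplicate on HL-60 cells in RPMI 1640 with 10% FBS, at 1–10,000 nM in five tenfold concentrations, for 72 h at 37 °C, 5% CO2. Each run also held DMSO or 100 nM of one of three metabolic inhibitors. Viability was measured by CellTiter-Glo and normalised to DMSO wells and to wells with proteasome inhibitor, present at 10 μM. Any area under the curve comes from four-parameter log-logistic fitting with drc and PharmacoGx.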

O=C([O-])CC(O)(C(=O)[O-])C(O)C(=O)[O-].[K+].[K+].[K+] (stereo not given) [Hydroxycitrate]
Settings | IC50 (cell viability) [µM]
BV-173 | > 10
HEL [2] | > 10
HL-60 [9] | > 10
K-562 [4] | > 10
KCL-22 [7] | > 10
KG-1 [5] | > 10
KU-812 [1] | > 10
LAMA-84 | > 10
ML-2 [12] | > 10
MOLM-13 [3] | > 10
MV4-11 [10] | > 10
Mono-Mac-6 | > 10
NOMO-1 [11] | > 10
SHI-1 [8] | > 10
THP-1 [6] | > 10

cell viability [%]
Settings | 1 nM | 10 nM | 100 nM | 1000 nM | 10000 nM
HEL [14] | 79.6 | 98.2 | 112 | 95.1 | 99.6
HL-60 [21] | 55.8 | 96.6 | 92.9 | 75.4 | 103
K-562 [16] | 81.6 | 98.8 | 102 | 110 | 108
KCL-22 [19] | 86.5 | 109 | 104 | 84.7 | 88
KG-1 [17] | 80 | 94.5 | 93.6 | 102 | 91.5
KU-812 [13] | 94.4 | 98.4 | 105 | 97.3 | 92.4
ML-2 [24] | 90.3 | 95.8 | 78.1 | 104 | 97
MOLM-13 [15] | 68.9 | 104 | 99.4 | 89.5 | 92.5
MV4-11 [22] | 81.4 | 107 | 111 | 106 | 90.2
NOMO-1 [23] | 83.1 | 101 | 99.1 | 95.8 | 102
SHI-1 [20] | 80.8 | 112 | 92 | 100 | 88.6
THP-1 [18] | 83.8 | 93.4 | 97.5 | 97.7 | 105

cell viability [%], HL-60 [25]
Settings | 0.001 µM | 0.01 µM | 0.1 µM | 1 µM | 10 µM
co-treatment: AZD3965 100 nM | 87.2 | 94.9 | 100 | 106.2 | 97.3
co-treatment: DMSO vehicle | 97.7 | 97.98 | 103.8 | 87.7 | 92.4
co-treatment: GSK2194069 100 nM | 101 | 99.09 | 103 | 95.3 | 98.1
co-treatment: pictilisib 100 nM | 93.7 | 90.3 | 108 | 97.3 | 94.4
